Test results from publication PMC9000719, “Design, Synthesis and Bioactivity Evaluation of Coumarin–BMT Hybrids as New Acetylcholinesterase Inhibitors” (Molecules, 2022).
Where “and” joins values, the source holds several entries; their conditions need not be identical. Equal entries are not always repeated. Entries after “also recorded” stand apart in the source; their conditions may differ. Marks after values point to notes of the source that are not given here.

Columns and labels:
Type in all cases: biochemical
[1] = target: T1, Acetylcholinesterase (AChE, E.C. 3.1.1.7, from electric eel) (Electrophorus electricus, UniProt O42275); experiment: Crude screening on AChE inhibition (Ellman method); conditions: 2 μM compounds; means ± SEM of at least three independent experiments; normalized as percentage of control
T1 construct: purchased Sigma Aldrich
T1 sequence (O42275 24-633): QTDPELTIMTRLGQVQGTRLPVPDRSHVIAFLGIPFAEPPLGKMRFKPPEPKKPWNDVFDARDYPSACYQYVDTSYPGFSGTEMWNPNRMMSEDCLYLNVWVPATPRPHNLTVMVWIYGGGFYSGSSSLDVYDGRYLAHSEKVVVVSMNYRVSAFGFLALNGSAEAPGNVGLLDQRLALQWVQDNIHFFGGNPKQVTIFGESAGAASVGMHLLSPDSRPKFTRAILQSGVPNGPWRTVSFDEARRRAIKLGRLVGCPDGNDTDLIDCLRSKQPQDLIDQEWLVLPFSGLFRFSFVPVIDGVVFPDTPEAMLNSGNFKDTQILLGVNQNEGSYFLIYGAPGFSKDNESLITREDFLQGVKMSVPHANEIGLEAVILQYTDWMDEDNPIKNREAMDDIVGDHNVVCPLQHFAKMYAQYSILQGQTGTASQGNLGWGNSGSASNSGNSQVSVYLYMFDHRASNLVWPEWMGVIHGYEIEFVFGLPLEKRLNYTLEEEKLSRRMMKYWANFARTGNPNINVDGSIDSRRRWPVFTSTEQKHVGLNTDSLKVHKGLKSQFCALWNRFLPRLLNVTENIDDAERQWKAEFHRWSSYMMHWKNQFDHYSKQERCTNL

[2] = target: T2, AChE (Electrophorus electricus); experiment: biochemical; conditions: inhibition constant against AChE; substrate ATCI at two concentrations
T2 construct: purchased Sigma Aldrich
T2 sequence (O42275 24-633): as above
Description: (§1) Kinetic characterization was performed using Dixon’s method. […] Assay medium contained DTNB solution 15 mM (40 µL), AChE solution 10 units/mL (50 µL), substrate solutions (10 µL) and various concentrations of tested compounds (20 µL). […] Results were computed and presented on the Lineweaver–Burk plot to determine the Ki value and to distinguish the type of enzyme inhibition.

[3] = tested on: T3, human AChE (Electrophorus electricus); experiment: biochemical; conditions: Lineweaver–Burk plots
T3 construct: purchased Sigma Aldrich
T3 sequence (O42275 24-633): as above
Description: as §1

Molecule | Inhibition Ratio (%) [1] | Ki [2] [nM] | type of enzyme inhibition [3]
2-oxo-7-(trifluoromethoxy)-N-(6-((4,11,11-trimethyl-1,2,3,4-tetrahydro-1,4-methanoacridin-9-yl)amino)hexyl)-2H-chromene-3-carboxamide [Compound 8d] | 62.92 ± 3.32 ^e % | – | –
7-bromo-2-oxo-N-(6-((4,11,11-trimethyl-1,2,3,4-tetrahydro-1,4-methanoacridin-9-yl)amino)hexyl)-2H-chromene-3-carboxamide [Compound 8c] | 57.58 ± 3.30 ^fg % | – | –
CC12CCC(c3c1nc1ccccc1c3NCCCCCNC(=O)c1cc3ccccc3oc1=O)C2(C)C (centres unmarked) [Compound 7a, 2-oxo-N-(5-((4,11,11-trimethyl-1,2,3,4-tetrahydro-1,4-methanoacridin-9-yl)amino)pentyl)-2H-chromene-3-carboxamide] | 71.11 ± 0.94 ^d % | – | –
Cc1ccc2oc(=O)c(C(=O)NCCCCCNc3c4c(nc5ccccc35)C3(C)CCC4C3(C)C)cc2c1 (centres unmarked) [Compound 7b, 6-methyl-2-oxo-N-(5-((4,11,11-trimethyl-1,2,3,4-tetrahydro-1,4-methanoacridin-9-yl)amino)pentyl)-2H-chromene-3-carboxamide] | 85.71 ± 1.66 ^bc % | 190 | –
CC12CCC(c3c1nc1ccccc1c3NCCCCCNC(=O)c1cc3cc(Br)ccc3oc1=O)C2(C)C (centres unmarked) [Compound 7c, 6-bromo-2-oxo-N-(5-((4,11,11-trimethyl-1,2,3,4-tetrahydro-1,4-methanoacridin-9-yl)amino)pentyl)-2H-chromene-3-carboxamide] | 50.72 ± 2.98 ^h % | – | –
CC12CCC(c3c1nc1ccccc1c3NCCCCCNC(=O)c1cc3cc(OC(F)(F)F)ccc3oc1=O)C2(C)C (centres unmarked) [Compound 7d, 2-oxo-6-(trifluoromethoxy)-N-(5-((4,11,11-trimethyl-1,2,3,4-tetrahydro-1,4-methanoacridin-9-yl)amino)pentyl)-2H-chromene-3-carboxamide] | 47.51 ± 2.65 ^hi % | – | –
COc1ccc2oc(=O)c(C(=O)NCCCCCNc3c4c(nc5ccccc35)C3(C)CCC4C3(C)C)cc2c1 (centres unmarked) [Compound 7e, 6-methoxy-2-oxo-N-(5-((4,11,11-trimethyl-1,2,3,4-tetrahydro-1,4-methanoacridin-9-yl)amino)pentyl)-2H-chromene-3-carboxamide] | 86.68 ± 2.18 ^b % | 65.1 | –
COc1ccc2cc(C(=O)NCCCCCNc3c4c(nc5ccccc35)C3(C)CCC4C3(C)C)c(=O)oc2c1 (centres unmarked) [Compound 7f, 7-methoxy-2-oxo-N-(5-((4,11,11-trimethyl-1,2,3,4-tetrahydro-1,4-methanoacridin-9-yl)amino)pentyl)-2H-chromene-3-carboxamide] | 81.70 ± 4.82 ^c % | 118 | –
COc1cc2cc(C(=O)NCCCCCNc3c4c(nc5ccccc35)C3(C)CCC4C3(C)C)c(=O)oc2cc1OC (centres unmarked) [Compound 7g, 6,7-dimethoxy-2-oxo-N-(5-((4,11,11-trimethyl-1,2,3,4-tetrahydro-1,4-methanoacridin-9-yl)amino)pentyl)-2H-chromene-3-carboxamide] | 84.75 ± 1.27 ^bc % | 153 | –
CC12CCC(c3c1nc1ccccc1c3NCCCCCCNC(=O)c1cc3ccccc3oc1=O)C2(C)C (centres unmarked) [Compound 8a, 2-oxo-N-(6-((4,11,11-trimethyl-1,2,3,4-tetrahydro-1,4-methanoacridin-9-yl)amino)hexyl)-2H-chromene-3-carboxamide] | 66.57 ± 1.09 ^de % | – | –
Cc1ccc2oc(=O)c(C(=O)NCCCCCCNc3c4c(nc5ccccc35)C3(C)CCC4C3(C)C)cc2c1 (centres unmarked) [Compound 8b] | 86.60% and 86.60 ± 2.13 ^b % | 49.2 | mixed-type inhibition; also recorded: mixed-type inhibitor
COc1ccc2oc(=O)c(C(=O)NCCCCCCNc3c4c(nc5ccccc35)C3(C)CCC4C3(C)C)cc2c1 (centres unmarked) [Compound 8e, 6-methoxy-2-oxo-N-(6-((4,11,11-trimethyl-1,2,3,4-tetrahydro-1,4-methanoacridin-9-yl)amino)hexyl)-2H-chromene-3-carboxamide] | 87.48% and 87.48 ± 0.27 ^b % | 50.8 | mixed-type inhibition; also recorded: mixed-type inhibitor
COc1ccc2cc(C(=O)NCCCCCCNc3c4c(nc5ccccc35)C3(C)CCC4C3(C)C)c(=O)oc2c1 (centres unmarked) [Compound 8f, 7-methoxy-2-oxo-N-(6-((4,11,11-trimethyl-1,2,3,4-tetrahydro-1,4-methanoacridin-9-yl)amino)hexyl)-2H-chromene-3-carboxamide] | 62.44 ± 1.63 ^e % | – | –
COc1cc2cc(C(=O)NCCCCCCNc3c4c(nc5ccccc35)C3(C)CCC4C3(C)C)c(=O)oc2cc1OC (centres unmarked) [Compound 8g, 6,7-dimethoxy-2-oxo-N-(6-((4,11,11-trimethyl-1,2,3,4-tetrahydro-1,4-methanoacridin-9-yl)amino)hexyl)-2H-chromene-3-carboxamide] | 62.74 ± 0.27 ^e % | – | –
CC12CCC(c3c1nc1ccccc1c3NCCCCCCCNC(=O)c1cc3ccccc3oc1=O)C2(C)C (centres unmarked) [Compound 9a, 2-oxo-N-(7-((4,11,11-trimethyl-1,2,3,4-tetrahydro-1,4-methanoacridin-9-yl)amino)heptyl)-2H-chromene-3-carboxamide] | 40.65 ± 4.28 ^j % | – | –
Cc1ccc2oc(=O)c(C(=O)NCCCCCCCNc3c4c(nc5ccccc35)C3(C)CCC4C3(C)C)cc2c1 (centres unmarked) [Compound 9b, 6-methyl-2-oxo-N-(7-((4,11,11-trimethyl-1,2,3,4-tetrahydro-1,4-methanoacridin-9-yl)amino)heptyl)-2H-chromene-3-carboxamide] | 61.56 ± 4.65 ^ef % | – | –
CC12CCC(c3c1nc1ccccc1c3NCCCCCCCNC(=O)c1cc3cc(Br)ccc3oc1=O)C2(C)C (centres unmarked) [Compound 9c, 6-bromo-2-oxo-N-(7-((4,11,11-trimethyl-1,2,3,4-tetrahydro-1,4-methanoacridin-9-yl)amino)heptyl)-2H-chromene-3-carboxamide] | 44.05 ± 2.74 ^ij % | – | –
CC12CCC(c3c1nc1ccccc1c3NCCCCCCCNC(=O)c1cc3cc(OC(F)(F)F)ccc3oc1=O)C2(C)C (centres unmarked) [Compound 9d, 2-oxo-6-(trifluoromethoxy)-N-(7-((4,11,11-trimethyl-1,2,3,4-tetrahydro-1,4-methanoacridin-9-yl)amino)heptyl)-2H-chromene-3-carboxamide] | 40.35 ± 2.45 ^j % | – | –
COc1ccc2oc(=O)c(C(=O)NCCCCCCCNc3c4c(nc5ccccc35)C3(C)CCC4C3(C)C)cc2c1 (centres unmarked) [Compound 9e, 6-methoxy-2-oxo-N-(7-((4,11,11-trimethyl-1,2,3,4-tetrahydro-1,4-methanoacridin-9-yl)amino)heptyl)-2H-chromene-3-carboxamide] | 62.15 ± 3.14 ^ef % | – | –
COc1ccc2cc(C(=O)NCCCCCCCNc3c4c(nc5ccccc35)C3(C)CCC4C3(C)C)c(=O)oc2c1 (centres unmarked) [Compound 9f, 7-methoxy-2-oxo-N-(7-((4,11,11-trimethyl-1,2,3,4-tetrahydro-1,4-methanoacridin-9-yl)amino)heptyl)-2H-chromene-3-carboxamide] | 56.11 ± 2.60 ^g % | – | –
COc1cc2cc(C(=O)NCCCCCCCNc3c4c(nc5ccccc35)C3(C)CCC4C3(C)C)c(=O)oc2cc1OC (centres unmarked) [Compound 9g, 6,7-dimethoxy-2-oxo-N-(7-((4,11,11-trimethyl-1,2,3,4-tetrahydro-1,4-methanoacridin-9-yl)amino)heptyl)-2H-chromene-3-carboxamide] | 35.49 ± 3.86 ^k % | – | –
